Eight molecules from ChEMBL document CHEMBL1201862, “PubChem BioAssay data set” (2004) can be followed below.

Common to all, as to assay: NCI tumour cell line growth inhibition, 48 h
The test system of assay [1] is SNB-19.
Assay [2] concerns HCT-15.
Assay [3] has as its system ACHN.
In assay [4] the test system is LOX IMVI.
The subject of assay [5] is CAKI-1.
Assay [6] relates to IGROV-1.
In assay [7] the test system is SK-MEL-28.
Assay [8] deals with SK-MEL-5.
Assay [9] deals with RXF 393.
For assay [10], the system named is MOLT-4.
Assay [11] relates to UO-31.
Assay [12] concerns NCI-H23.
Assay [13] relates to MDA-N.
In assay [14] the test system is HCT-116.
Assay [15] concerns OVCAR-8.
For assay [16], the system named is KM12.
For assay [17], the system named is SNB-75.
For assay [18], the system named is SW-620.
The test system of assay [19] is T47D.
Assay [20] deals with SF-268.

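1) Cells in 96-well plates. 2) Compound, 48 h, 5 concentrations. 3) Linear interpolation between surrounding doses. 4) Unreached endpoint = highest concentration. GI50: concentration for 50% inhibition of growth.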 Activity calls are given as the source filed them. Cut-off read from the data, not from the text of the source: active = GI50 up to about 1.1 µM and inactive = higher.

`CCCCNN`: the GI50 was > 100 µM (inactive) in assay [1]; greater than 100 µM in assay [2]; > 100 µM (inactive) in assay [3]; > 100 µM (inactive) in [4]; > 100 µM (inactive) in assay [5]; > 100 µM (inactive) in [6]. Moreover, the GI50 in [7] is > 100 µM (inactive); in assay [8] it was 95.7 µM (inactive); in [9], > 100 µM (inactive); in [10] it was > 100 µM (inactive); in assay [11] it was > 100 µM (inactive); in [12] it was > 100 µM (inactive). The GI50 in assay [13], in assay [14], in assay [15], in [16], in assay [17] and in assay [18] was > 100 µM (inactive) in each case. The GI50 in assay [19] is > 100 µM (inactive).
Regarding `CCOc1c(OC)cc(-c2nc3n(n2)C(=O)C(CC)S3)cc1OC` (stereo unspecified), the GI50 in assay [20] is > 10 µM (inactive); in assay [1] it was > 10 µM (inactive); in assay [2] it was greater than 10 µM; in assay [3] it was > 10 µM (inactive); in assay [4], > 10 µM (inactive); in assay [5], > 10 µM (inactive). Also, the GI50 in [6], in assay [7], in [8], in [9], in [10] and in assay [12] was > 10 µM (inactive) throughout. Moreover, the GI50 in [13], in assay [14], in assay [15], in assay [16], in assay [17] and in assay [18] was > 10 µM (inactive) each time. In addition, in assay [19], the GI50 was > 10 µM (inactive).
Turning to `COC(=O)C1C(O)C(C)C(O)C(C)(O)C=C(C)C2=C3C(=C(C)C(=O)c4c(O)c(c(C)c(OC(C)=O)c43)NC(=O)C(C)=C/C=C\C(C)(O)C(O)C(C)C1O)OCO2` (stereo unspecified), the GI50 in assay [20] is 75.2 µM (inactive); in [1], > 100 µM (inactive); in [2], greater than 100 µM; in assay [3], > 100 µM (inactive); in [4], 35.3 µM (inactive); in assay [6], 55.6 µM (inactive). Moreover, the GI50 is > 100 µM (inactive) in assay [7]; 18.3 µM (inactive) in assay [8]; > 100 µM (inactive) in assay [9]; 67.6 µM (inactive) in [10]; 91.6 µM (inactive) in assay [11]; > 100 µM (inactive) in assay [12]. In addition, the GI50 in [13] was 40.3 µM (inactive); in assay [14], 35.5 µM (inactive); in assay [15], > 100 µM (inactive); in [16] it was 80.2 µM (inactive); in [17], > 100 µM (inactive); in [18], 40.8 µM (inactive). Further, in assay [19], the GI50 was 67.9 µM (inactive).
As for `N=c1oc2ccccc2cc1C(=O)Nc1cccc2ccccc12`, the GI50 in [20] is > 100 µM (inactive); in assay [1], > 100 µM (inactive); in assay [2] it was greater than 100 µM; in assay [3], > 100 µM (inactive); in assay [4], > 100 µM (inactive); in assay [5], > 100 µM (inactive). The GI50 in assay [6], in assay [7], in assay [8], in [9], in assay [10] and in assay [12] was > 100 µM (inactive) each time. Also, the GI50 in [13], in assay [14], in assay [15], in assay [16], in assay [17] and in assay [18] was > 100 µM (inactive) in each case. Besides, the GI50 in [19] was > 100 µM (inactive).
As to `CCOC(=O)c1c(CN2CCCC2)n(-c2ccccc2)c2cc(Br)c(OC)cc12`, the GI50 in assay [20] is 46.6 µM (inactive); in assay [1], 33.7 µM (inactive); in assay [2], 14.4 µM; in [3], 11.1 µM (inactive); in assay [4] it was 13.8 µM (inactive); in assay [5], 41.6 µM (inactive). In addition, the GI50 is 16.5 µM (inactive) in assay [6]; 15.6 µM (inactive) in assay [7]; 12.3 µM (inactive) in assay [8]; 0.574 µM (active) in assay [9]; 4.41 µM (inactive) in assay [10]; 11.5 µM (inactive) in assay [11]. Besides, the GI50 in [12] is 20.5 µM (inactive); in assay [13], 29.3 µM (inactive); in [14] it was 11.2 µM (inactive); in [15], 29.2 µM (inactive); in [17] it was 5.97 µM (inactive); in assay [18], 18 µM (inactive). Also, the GI50 in [19] is 14.5 µM (inactive).
For `COC(OC)[C@@H]1OC[C@H](n2cnc3c(N)ncnc32)[C@H]1O`, the GI50 in [20] is > 100 µM (inactive); in assay [1], 5.06 µM (inactive); in [2], greater than 100 µM; in assay [3], > 100 µM (inactive); in assay [4], > 100 µM (inactive); in assay [5], > 100 µM (inactive). Besides, the GI50 in assay [6], in assay [7], in [8], in assay [9], in assay [10] and in [11] was > 100 µM (inactive) each time. Also, the GI50 in assay [12], in assay [13], in [14], in assay [16], in assay [17] and in assay [18] was > 100 µM (inactive) in each case. Further, the GI50 in assay [19] was > 100 µM (inactive).
For `CC(C)(C)NC(=O)/C(=C\Sc1ccccc1)c1ccccc1`, the GI50 was > 100 µM (inactive) in [1]; greater than 48.5 µM in assay [2]; > 100 µM (inactive) in assay [3]; 20.3 µM (inactive) in assay [4]; > 100 µM (inactive) in [5]; > 100 µM (inactive) in assay [6]. Besides, the GI50 was > 100 µM (inactive) in assay [7]; 52.5 µM (inactive) in [8]; > 100 µM (inactive) in [9]; 23.2 µM (inactive) in [10]; > 100 µM (inactive) in assay [11]; > 41.7 µM (inactive) in assay [12]. The GI50 in assay [13] was 71.1 µM (inactive); in assay [14], > 65.6 µM (inactive); in assay [15], > 60 µM (inactive); in [16], > 100 µM (inactive); in [17] it was > 100 µM (inactive); in assay [18], > 100 µM (inactive). Besides, in [19], the GI50 is 56.1 µM (inactive).
As to `CC1(C)OC(=O)CC12CCN(Cc1ccccc1)CC2`, the GI50 is > 100 µM (inactive) in assay [20]; > 100 µM (inactive) in [1]; greater than 100 µM in [2]; > 100 µM (inactive) in assay [3]; > 100 µM (inactive) in [4]; > 100 µM (inactive) in assay [5]. In addition, the GI50 in assay [6], in assay [7], in assay [8], in [9], in assay [10] and in [11] was > 100 µM (inactive) each time. The GI50 in assay [12], in assay [13], in assay [14], in assay [15], in [17] and in assay [19] was > 100 µM (inactive) in each case.
